Values of other authors in patent publication US12618855B2, “Serum protein biomarker panel for idiopathic pulmonary fibrosis” (Children's Hospital Medical Center, priority 2019, dated 2026).

Target: p110β (Homo sapiens, UniProt P42338)
Conditions: p110β compared with p110α, p110-γ and p110-δ (equipotent)

Sequence of p110β (P42338 whole entry, species assumed): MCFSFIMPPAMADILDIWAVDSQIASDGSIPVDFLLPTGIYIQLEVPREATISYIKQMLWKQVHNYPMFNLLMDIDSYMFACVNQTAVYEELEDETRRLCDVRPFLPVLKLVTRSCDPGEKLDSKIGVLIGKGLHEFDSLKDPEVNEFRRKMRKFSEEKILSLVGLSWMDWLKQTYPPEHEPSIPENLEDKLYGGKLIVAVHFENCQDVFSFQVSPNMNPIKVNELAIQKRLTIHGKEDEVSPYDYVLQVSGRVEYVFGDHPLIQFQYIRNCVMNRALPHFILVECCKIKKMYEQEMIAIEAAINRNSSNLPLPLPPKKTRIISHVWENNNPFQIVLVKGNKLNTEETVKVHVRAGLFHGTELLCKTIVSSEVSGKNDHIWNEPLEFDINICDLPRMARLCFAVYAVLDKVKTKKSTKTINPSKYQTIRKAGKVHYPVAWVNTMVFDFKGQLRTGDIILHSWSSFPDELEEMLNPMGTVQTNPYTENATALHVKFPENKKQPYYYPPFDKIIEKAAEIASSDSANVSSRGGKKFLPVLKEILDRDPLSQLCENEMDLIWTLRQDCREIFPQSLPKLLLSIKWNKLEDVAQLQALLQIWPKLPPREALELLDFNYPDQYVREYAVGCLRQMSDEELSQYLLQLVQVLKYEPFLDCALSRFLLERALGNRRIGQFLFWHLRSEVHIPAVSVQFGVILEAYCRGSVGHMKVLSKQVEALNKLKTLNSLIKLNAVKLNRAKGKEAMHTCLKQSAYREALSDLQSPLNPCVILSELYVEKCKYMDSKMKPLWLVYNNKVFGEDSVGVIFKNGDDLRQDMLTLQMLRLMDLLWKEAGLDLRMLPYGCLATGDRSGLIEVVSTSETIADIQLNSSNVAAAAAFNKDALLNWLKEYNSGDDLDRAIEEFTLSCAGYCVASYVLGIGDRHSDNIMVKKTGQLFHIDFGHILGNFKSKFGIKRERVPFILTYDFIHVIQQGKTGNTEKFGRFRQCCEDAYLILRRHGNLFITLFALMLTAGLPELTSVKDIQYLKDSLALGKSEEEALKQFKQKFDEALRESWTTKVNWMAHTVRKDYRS
Sequence of p110β (P27986 whole entry partner, species assumed): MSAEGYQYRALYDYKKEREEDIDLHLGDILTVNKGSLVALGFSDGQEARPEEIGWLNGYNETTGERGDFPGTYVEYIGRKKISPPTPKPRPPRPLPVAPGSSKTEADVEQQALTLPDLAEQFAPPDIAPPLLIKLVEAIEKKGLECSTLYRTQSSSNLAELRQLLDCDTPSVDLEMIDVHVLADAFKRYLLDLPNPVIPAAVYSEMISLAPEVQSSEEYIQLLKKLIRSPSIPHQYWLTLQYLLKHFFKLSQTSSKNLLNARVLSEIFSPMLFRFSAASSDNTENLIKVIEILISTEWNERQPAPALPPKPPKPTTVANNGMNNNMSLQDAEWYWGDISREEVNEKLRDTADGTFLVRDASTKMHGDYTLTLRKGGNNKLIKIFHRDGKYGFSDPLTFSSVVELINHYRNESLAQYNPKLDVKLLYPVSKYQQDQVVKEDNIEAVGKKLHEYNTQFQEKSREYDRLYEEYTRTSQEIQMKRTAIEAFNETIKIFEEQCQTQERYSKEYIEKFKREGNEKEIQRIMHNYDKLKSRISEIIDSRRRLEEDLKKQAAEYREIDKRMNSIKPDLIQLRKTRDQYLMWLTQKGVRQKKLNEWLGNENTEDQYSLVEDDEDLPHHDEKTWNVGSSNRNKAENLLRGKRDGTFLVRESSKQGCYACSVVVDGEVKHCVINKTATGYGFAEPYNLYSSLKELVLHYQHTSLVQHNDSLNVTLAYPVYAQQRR

Cc1nc(-c2cn3c(n2)-c2ccc(-c4cnn(C(C)(C)C(N)=O)c4)cc2OCC3)n(C(C)C)n1 [Taselisib]
lower potency of p110β inhibition: 30 fold
